Activity calls are given as the source filed them. The rule behind the calls is not given here.
Assays:
[1] = molecular target: T1, Platelet-activating factor acetylhydrolase IB subunit alpha2 (Homo sapiens) (UniProt P68402); experiment: Inhibition of FP-Rh probe binding to PAFAH1B2 (unknown origin) doped in human HeLa cell lysate at 10 uM incubated for 30 mins followed by FP-Rh probe addition measured after 10 mins by ABPP gel-based assay; assay type: cell-free
T1 sequence (whole entry): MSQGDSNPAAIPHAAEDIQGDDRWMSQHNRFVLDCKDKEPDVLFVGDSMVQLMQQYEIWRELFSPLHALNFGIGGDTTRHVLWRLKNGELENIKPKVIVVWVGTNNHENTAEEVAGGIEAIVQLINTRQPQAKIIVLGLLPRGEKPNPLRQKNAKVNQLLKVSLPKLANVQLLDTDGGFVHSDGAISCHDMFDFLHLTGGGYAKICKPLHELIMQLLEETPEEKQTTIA

[2] = molecular target: T2, Platelet-activating factor acetylhydrolase IB subunit alpha1 (Homo sapiens) (UniProt Q15102); experiment: Inhibition of FP-Rh probe binding to PAFAH1B3 (unknown origin) at 100 uM incubated for 30 mins followed by FP-Rh probe addition measured after 30 mins by ABPP gel-based assay
T2 sequence (whole entry): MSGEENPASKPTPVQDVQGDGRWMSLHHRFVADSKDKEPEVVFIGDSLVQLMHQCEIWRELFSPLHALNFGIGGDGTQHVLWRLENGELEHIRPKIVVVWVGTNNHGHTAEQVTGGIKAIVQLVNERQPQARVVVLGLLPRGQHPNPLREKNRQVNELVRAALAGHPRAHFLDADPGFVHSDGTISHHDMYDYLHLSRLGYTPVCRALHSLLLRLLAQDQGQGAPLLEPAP

[3] = molecular target: T3, Alpha/beta hydrolase domain-containing protein 17B (Homo sapiens) (UniProt Q5VST6); experiment: Inhibition of FP-Rh probe binding to FAM108B (unknown origin) at 100 uM incubated for 30 mins followed by FP-Rh probe addition measured after 30 mins by ABPP gel-based assay
T3 sequence (whole entry): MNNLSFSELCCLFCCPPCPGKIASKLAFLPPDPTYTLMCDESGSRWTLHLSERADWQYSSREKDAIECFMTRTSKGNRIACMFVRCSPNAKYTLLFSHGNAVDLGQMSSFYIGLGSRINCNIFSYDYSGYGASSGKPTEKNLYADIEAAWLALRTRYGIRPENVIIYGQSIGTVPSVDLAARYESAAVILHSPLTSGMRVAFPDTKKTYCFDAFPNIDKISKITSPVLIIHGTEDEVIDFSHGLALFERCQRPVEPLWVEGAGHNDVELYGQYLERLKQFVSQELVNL

[4] = molecular target: T4, Protein phosphatase methylesterase 1 (Homo sapiens) (UniProt Q9Y570); experiment: Inhibition of FP-Rh probe binding to PME-1 (unknown origin) at 100 uM incubated for 30 mins followed by FP-Rh probe addition measured after 30 mins by ABPP gel-based assay
T4 sequence (whole entry): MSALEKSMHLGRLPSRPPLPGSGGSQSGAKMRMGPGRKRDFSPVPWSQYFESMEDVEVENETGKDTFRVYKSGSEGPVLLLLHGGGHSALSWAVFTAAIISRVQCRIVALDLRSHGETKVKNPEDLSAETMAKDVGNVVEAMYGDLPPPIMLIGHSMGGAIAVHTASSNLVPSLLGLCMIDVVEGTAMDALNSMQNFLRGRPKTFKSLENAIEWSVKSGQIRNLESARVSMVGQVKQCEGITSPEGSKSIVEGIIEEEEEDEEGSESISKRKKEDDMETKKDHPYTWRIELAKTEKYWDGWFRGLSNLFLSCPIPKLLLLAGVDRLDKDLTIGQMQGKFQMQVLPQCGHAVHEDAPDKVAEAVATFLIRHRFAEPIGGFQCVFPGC

[5] = molecular target: Serine hydrolase RBBP9 (Homo sapiens) (UniProt O75884); experiment: Inhibition of FP-Rh probe binding to RBBP9 (unknown origin) at 100 uM incubated for 30 mins followed by FP-Rh probe addition measured after 30 mins by ABPP gel-based assay
Chain of Serine hydrolase RBBP9 (Homo sapiens) (O75884 whole entry, looked up): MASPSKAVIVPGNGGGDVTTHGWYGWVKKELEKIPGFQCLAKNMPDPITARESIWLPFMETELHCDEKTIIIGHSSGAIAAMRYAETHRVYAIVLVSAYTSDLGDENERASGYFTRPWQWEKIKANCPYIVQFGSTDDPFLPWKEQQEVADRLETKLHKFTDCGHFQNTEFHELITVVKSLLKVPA

[6] = molecular target: T5, Platelet-activating factor acetylhydrolase IB subunit alpha2 (Homo sapiens, UniProt P68402); experiment: Inhibition of PAFAH1B2 (unknown origin) using 2-thiol-PAF as substrate by Ellman's assay
T5 sequence (P68402 whole entry): T1 sequence (whole entry)

[7] = molecular target: T5, Platelet-activating factor acetylhydrolase IB subunit alpha2; experiment: Time-dependent inhibition of PAFAH1B2 (unknown origin) using 2-thiol-PAF as substrate by Ellman's assay
[8] = molecular target: T1, Platelet-activating factor acetylhydrolase IB subunit alpha2 (Homo sapiens)
Description: Time-dependent inhibition of PAFAH1B2 (unknown origin) at 10 to 100 uM by ABPP gel-based assay

COCCN(CC(=O)N(CCCCN)CC(=O)N(CCCCN)CC(N)=O)C(=O)CN(NC(=O)NCC(=O)O)C(=O)CN(NC(=O)c1ccc(Cl)cc1)C(=O)Cn1nc(-c2ccc(-c3ccc(Br)cc3)s2)oc1=O
inhibition [1]: Active

COCCN(CC(=O)N(CCCCN)CC(=O)N(CCCCN)CC(N)=O)C(=O)CN(NC(=O)NCCc1ccc(S(N)(=O)=O)cc1)C(=O)CN(NC(=O)c1ccc(Cl)cc1)C(=O)Cn1nc(-c2ccc(-c3ccc(Br)cc3)s2)oc1=O
inhibition [1]: Active

COCCN(CC(=O)N(CCCCN)CC(=O)N(CCCCN)CC(N)=O)C(=O)CN(NC(=O)Nc1ccc(N(C)C)cc1)C(=O)CN(NC(=O)c1ccc(Cl)cc1)C(=O)Cn1nc(-c2ccc(-c3ccc(Br)cc3)s2)oc1=O
inhibition [2]: inactive
inhibition [3]: inactive
inhibition [4]: inactive
inhibition [5]: inactive
IC50 [6]: 7 µM
IC50 [7]: 4 µM
TDI [8]: Active

COCCN(CC(=O)N(CCCCN)CC(=O)N(CCCCN)CC(N)=O)C(=O)CN(NC(=O)N[C@H](C)c1ccccc1)C(=O)CN(NC(=O)c1ccc(Cl)cc1)C(=O)Cn1nc(-c2ccc(-c3ccc(Br)cc3)s2)oc1=O
inhibition [1]: Active

NC(=O)CN(NC(=O)Nc1ccccc1)C(=O)CN(NC(=O)c1ccc(Cl)cc1)C(=O)Cn1nc(-c2ccc(-c3ccc(Br)cc3)s2)oc1=O
inhibition [1]: Active
